{
  "source": "paper PMC8805583",
  "about": "“Discovery of Herbacetin as a Novel SGK1 Inhibitor to Alleviate Myocardial Hypertrophy” (Advanced Science, 2021)",
  "key": {"SGK1": {"molecular_target": "T1, SGK1 (Homo sapiens, UniProt O00141)", "T1 sequence (O00141 1-431)": "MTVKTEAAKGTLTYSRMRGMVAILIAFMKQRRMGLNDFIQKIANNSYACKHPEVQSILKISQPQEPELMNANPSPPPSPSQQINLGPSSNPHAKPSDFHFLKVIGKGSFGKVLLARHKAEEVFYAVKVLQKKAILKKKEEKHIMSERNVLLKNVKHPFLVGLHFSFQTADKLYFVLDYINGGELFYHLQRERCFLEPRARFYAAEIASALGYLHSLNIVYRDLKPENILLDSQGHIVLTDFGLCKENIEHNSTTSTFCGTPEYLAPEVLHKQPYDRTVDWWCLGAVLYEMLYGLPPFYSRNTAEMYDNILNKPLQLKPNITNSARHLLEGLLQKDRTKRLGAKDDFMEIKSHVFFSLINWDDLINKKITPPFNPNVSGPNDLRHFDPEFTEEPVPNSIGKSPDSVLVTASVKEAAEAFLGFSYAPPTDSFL", "experiment": "KINOMEscan direct binding assay (Eurofins Discovery)", "excerpt": "To identify active compounds with SGK1 inhibitory activity from Ext.R, a novel mass‐spectrometry based kinase inhibitory assay was developed. A polypeptide sequence ([…], m/z: 618.6) derived from glycogen Synthase Kinase‐3(GSK3), a known substrate of SGK1, was optimized and synthesized. We subsequently used liquid chromatography coupled with mass spectrometry (LC/MS) to detect and quantify its phosphorylation level ([…](p)FAE, m/z:658.7) (Figure 3A).^[ [26] ^] Basal level SGK1 was supplemented to each well, and the peak area of phosphorylation was measured in the presence or absence of testing compounds. […] After investigating the major chemical constituents in Ext.R (Table S3, Supporting Information), a set of compounds in Ext.R were subsequently screened for their impacts on SGK1 activity. […] The direct interaction between HBT and SGK1 was further verified by temperature‐ and dose‐dependent cellular thermal shift assays (Figure 3E,F). We further performed a direct binding assay of HBT to SGK1 by KINOMEscan assay (Eurofins Discovery).\nThe initial crystal structures of SGK1 (PDB entry: 3HDN, 3HDM, and 2R5T) were obtained from the Protein Data Bank (PDB). The prepared inhibitors were then docked by Glide with the extra precision (XP) scoring mode to estimate the binding affinity for each protein–ligand complex. The detailed process of docking has been described previously.^[ [46] ^] […]"}, "rat cardiomyocytes": {"tested_on": "rat cardiomyocytes", "experiment": "ROS (DCFH-DA) and Ca2+ (Fluo-4 AM) detection in PE-stimulated cardiomyocytes", "type": "cell-based", "excerpt": "Elevated cytoplasmic calcium was also observed in PE‐stimulated rat cardiomyocytes after Fluo‐4 AM staining. […] Since the channel subunit Orai1 and stromal interaction molecule 1 (STIM1) are known to participate in the orchestration of Ca^2+ entry into cells and are regulated by multiple kinases including SGK1,^[ [33] ^] we examined if HBT regulates their activities. […] Orai1 may be regulated by Nedd4‐like E3 ubiquitin protein ligase (Nedd4l) mediated degradation or the transcription factor nuclear factor‐κB (NF‐κB) dependent transcription, so we detected the effects of HBT on SGK1 downstream proteins. […] Therefore, HBT may also attenuate cardiomyocyte hypertrophy by reducing cytoplasmic calcium level.\nFluo-4 AM were obtained from Beyotime. SGK1 antibody and GAPDH antibody were obtained from Beyotime. FoxO1, Phospho-FoxO1 (Ser256), p44/42 MAPK (Erk1/2), […]\np65, Phospho-GSK-3β (Ser9), GSK-3β, Phospho-NDRG1 (Thr346), NDRG1, Phospho-NEDD4L (Ser342), NEDD4L, HO-1, Nrf2 and MnSOD antibody were obtained from Cell Signaling. Phospho-SGK1(S422) antibody was obtained from Affinity. Orai1, STIM1, ACTA1 and FLAG antibody were obtained from Proteintech. BNP antibody was obtained from Abcam. ANP antibody was obtained from Santa Cruz Biotechnology. Myosin antibody was obtained from Sigma-Aldrich. Reference compounds were obtained from Shanghai Yuanye Biotechnology. Lipofectamine 2000 transfection reagent was purchased from Invitrogen. Protein A/G agarose was purchased from Beaver Biotechnology.\nPhenylephrine (PE) was obtained from Aladdin. Deionized water was prepared with an Elga PURELAB flex system (ELGA LabWater, UK). […]\nMicro® Confocal High-Content Imaging System (Molecular Devices). […]\nBSA for 1 h, the cells were incubated overnight at 4 °C with rabbit anti-FoxO1 antibody and then with goat anti-rabbit AlexaFluor 488–conjugated antibody for 1 h at room temperature.\nNuclei were stained with Hoechst. Images were acquired using a high-resolution laser confocal microscope (Leica) using an oil immersion A-Plan ×63 objective.\n3. ROS and Ca2+ Detection\nROS and Ca2+ levels were detected using DCFH-DA and Fluo-4 AM reagent (Beyotime) respectively according to the manufacturer’s instructions. After incubated for 48 hours, the supernatant was removed and cells were washed with PBS for three times. 100 μL DCFH-DA […]\nor Fluo-4 AM working solution was added to each well and incubated at 37℃ for 20 minutes.\nThen the cells were washed with PBS for 3 times and images were acquired using an ImageXpress Micro® Confocal High-Content Imaging System (Molecular Devices). The mean fluorescence intensity of cells positive for DCFH-DA or Fluo-4 AM staining was […]\n4. Histology and Immunohistochemistry (IHC) […]\n(Sigma) according to the manufacturer’s protocol. […]"}},
  "data": [
    {"compound": "O=c1c(O)c(-c2ccc(O)cc2)oc2c(O)c(O)cc(O)c12", "note": "[HBT, herbacetin]", "values": [
      {"measurement": "Kd", "setting": "SGK1; KINOMEscan, read-out: binding constants (Kds) for SGK1", "result": 840, "unit": "nM"},
      {"measurement": "Kd fold lower than EMD638683", "setting": "SGK1; same KINOMEscan assay", "result": 14, "unit": "fold"},
      {"measurement": "cytoplasmic calcium accumulation, Fluo-4 AM staining", "setting": "rat cardiomyocytes; PE stimulation, cotreatment", "result": "effectively blocked"},
      {"measurement": "free radicals (ROS), DCFH-DA staining", "setting": "rat cardiomyocytes; PE stimulation, cotreatment", "result": "greatly inhibited"},
      {"measurement": "MnSOD expression", "setting": "rat cardiomyocytes; PE, western blot", "result": "restored"},
      {"measurement": "phosphorylation level of Erk", "setting": "rat cardiomyocytes; PE, western blot", "result": "downregulated"}
    ]}
  ]
}
